Laboratory results from article PMC10514447 (The Journal of Biological Chemistry, 2023).

Tested on: GCGR ECD
Assay: TIRF-based smFRET of GCGR ECD dynamics in the presence of ligands
Parameters: species or system human
Conditions: for smFRET histogram peak location (FRET efficiency), green peak / smFRET histogram peak location (FRET efficiency), red peak: 64 molecules (glucagon), 86 (MK0893)
Excerpt: We used smFRET to examine the conformational behavior of the GCGR ECD. smFRET is a well-established technique for studying the conformational dynamics of biomolecules at the single molecule level ([38], [39]), as it is sensitive to changes in distances in vitro and in cells ([40]). First, we specifically expressed and purified a GCGR with two surface-exposed cysteines at positions 49 (Cys49) of the ECD and 287 (Cys287) of the extracellular side of helix IV (Fig. S4B). These two cysteines were site-specifically labeled with a FRET donor (Alexa Fluor 555) and a FRET acceptor (Alexa Fluor 647). The efficiency of energy transfer will report the proximity between the donor and acceptor fluorophores and any changes in that distance ([41], [42]). To view receptors under smFRET, the doubly labeled GCGR was surface-immobilized on a PEG-passivated quartz microscope slide using a biotin–streptavidin interaction, as shown in Figure 1A. A biotinylated anti-FLAG antibody was used to capture the FLAG-tagged GCGR (Fig. 1A). A 532 nm laser was used to excite the donor fluorophore by creating the evanescent field from the total internal reflection of the laser beam (Fig. 1A). The emission signals from the donor and acceptor fluorophores were detected by an electron-multiplied back-illuminated CCD camera. […] A control experiment was performed to test the specific immobilization of GCGR–micelle using a biotinylated antibody to a PEG-passivated quartz surface (Fig. S5A). […] Single-molecule fluorescence time trajectories were assessed and analyzed using custom software written in MATLAB.
Single-molecule fluorescence data were recorded using a customized prism-based total internal reflection fluorescence imaging system based on an inverted IX73 microscope (Olympus) equipped with a X60 objective (Olympus, 1.49 numerical aperture, water) as described in earlier publications ([47], [48], [49]). Quartz microscope slides (G. Finkenbeiner) and coverslips (Fisher Scientific #1254588) were cleaned and passivated with polyethylene glycol (m-PEG-SVA) and 3% (w/w) biotin-PEG-SVA (Laysan Bio) to prevent nonspecific protein adsorption, as previously described ([30]). A sample chamber was prepared using double-sided tape (Scotch) on PEGylated slides and coverslips ([48]). The sample chamber was first coated with 0.02 mg/ml NeutrAvidin (ThermoFisher Scientific #PI31000) and washed with T50 buffer (10 mM Tris, pH 7.4, 50 mM NaCl). A […] biotin-conjugated anti-FLAG antibody (GenScript #A01429) was injected and incubated for 20 min, followed by washing with the imaging buffer (25 mM HEPES pH 7.5, 150 mM NaCl, 2 mM Trolox, 0.05% DDM, 0.01% CHS) to remove unbound biotinylated anti-FLAG antibody. The GCGR sample was diluted in an imaging buffer, introduced into the sample chamber, and incubated for 30 min. The sample chamber was washed extensively with an imaging buffer to remove any unbound receptors. Finally, an oxygen scavenging system, 5 mM protocatechuic acid (Sigma #37580), and 3 U/ml protocatechuate-3,4-dioxygenase (Oriental Yeast) ([50]) in the imaging buffer were applied before total internal reflection fluorescence illumination. The sample was excited at […] (CrystaLaser), and emission intensities from both donor and acceptor fluorophores were collected on an EMCCD camera (Andor Technology) with 100 ms integration time using a custom single-molecule data acquisition program ([48]). All single-molecule measurements were performed at room temperature. Single-molecule time trajectories were extracted using scripts written in IDL software (Harris Geospatial Solutions, Inc).

[1] = GCGR labeled Alexa Fluor 555/647 at Cys49 and Cys287, DDM-CHS micelle, room temperature, Gaussian fit
[2] = Gaussian fit of smFRET histogram, ligand-bound GCGR
[3] = calculated from peak centre with Förster equation, R0 51 Å, glucagon-bound GCGR

Row | Compound | smFRET histogram peak location (FRET efficiency), green peak [1] | smFRET histogram peak location (FRET efficiency), red peak [1] | smFRET histogram peak width, green peak [2] | smFRET histogram peak width, red peak [2] | smFRET histogram relative peak area, green peak [2] [%] | smFRET histogram relative peak area, red peak [2] [%] | effect on the FRET distribution relative to apo-GCGR (saturating concentration of antagonist, histogram from 86 molecules) | smFRET histogram peak location (FRET efficiency), blue peak (GCGR labeled Alexa Fluor 555/647 at Cys49 and Cys287, DDM-CHS micelle, room temperature, Gaussian fit, 64 molecules) | smFRET histogram peak width, blue peak [2] | smFRET histogram relative peak area, blue peak [2] [%] | calculated distance, 0.53 FRET state [3] [Å] | calculated distance, 0.67 FRET state [3] [Å] | distance between the two fluorophores, 0.86 FRET state [3] [Å]
1 | COc1ccc2cc(-c3cc(-c4cc(Cl)cc(Cl)c4)nn3[C@@H](C)c3ccc(C(=O)NCCC(=O)O)cc3)ccc2c1 [MK0893] | 0.91 | 0.75 | 0.09 | 0.19 | 47 | 53 | no effect on the FRET distribution relative to the apo-GCGR |  |  |  |  |  | 
2 | glucagon | 0.86 | 0.67 | 0.14 | 0.11 | 59 | 17 |  | 0.53 | 0.24 | 24 | 50.0 | 45.3 | 37.7
